Test results from patent US20230148599A1, “FUNGICIDAL MIXTURES CONTAINING PYRAZOLE DERIVATIVES” (FMC Corporation, priority 2020, published 2023).

system: Septoria tritici; experiment: Test A: wheat leaf blotch, preventive spray on wheat seedlings; assay type: in vivo; conditions: 50 ppm, 100 = 100% disease control, 0 = no control
Method in brief: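 Wheat seedlings sprayed to run-off with compound suspended in acetone/water with 250 ppm PEG400 surfactant, inoculated next day with Septoria tritici spores. Held 48 h saturated at 24 °C, then 17 days at 20 °C; disease rated 0–100% control relative to controls.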

Point of comparison: Cc1nn(C)c(Nc2c(F)cc(Cl)cc2[N+](=O)[O-])c1-c1ccc(F)cc1Br [compound 131], “Test A disease control rating” value 100%. Against it:
- Cc1nn(C)c(Nc2c(F)cc(Br)cc2[N+](=O)[O-])c1-c1ccc(Cl)cc1Cl [compound 132] — the same, 100%
- Cc1nn(C)c(Nc2c(Cl)cccc2[N+](=O)[O-])c1-c1ccc(Cl)cc1Cl [compound 133] — the same, 100%
- Cc1nn(C)c(Nc2ccccc2[N+](=O)[O-])c1-c1ccc(C#N)cc1F [compound 134] — the same, 100%
- Cc1nn(C)c(Nc2ccccc2[N+](=O)[O-])c1-c1c(F)cccc1F [compound 135] — the same, 100%
- Cc1nn(C)c(Nc2ccccc2[N+](=O)[O-])c1-c1c(F)cccc1Cl [compound 136] — the same, 100%
- CCc1nn(C)c(Nc2c(F)cc(C)cc2[N+](=O)[O-])c1-c1ccc(F)cc1Cl [compound 137] — the same, 100%
- COc1cc(F)c(Nc2c(-c3ccc(Cl)cc3Cl)c(C)nn2C)c([N+](=O)[O-])c1 [compound 138] — the same, 100%
- Cc1nn(C)c(Nc2ccccc2[N+](=O)[O-])c1-c1ccc(F)cc1Br [compound 139] — lower, 98%
- COc1ccc(-c2c(C)nn(C)c2Nc2ccccc2[N+](=O)[O-])c(Cl)c1 [compound 140] — lower, 99%
- COc1cc(Cl)c(Nc2c(-c3ccc(F)cc3F)c(C)nn2C)c([N+](=O)[O-])c1 [compound 141] — lower, 99%
- COc1ccc(Nc2c(-c3ccc(Cl)cc3Cl)c(C)nn2C)c([N+](=O)[O-])c1 [compound 142] — the same, 100%
- Cc1cc(F)c(Nc2c(-c3ccc(Cl)cc3Cl)c(C)nn2C)c([N+](=O)[O-])c1 [compound 143] — lower, 99%

system: Puccinia recondita f. sp. tritici; experiment: Test B: wheat leaf rust, preventive spray on wheat seedlings; assay type: in vivo; conditions: 50 ppm, 100 = 100% disease control, 0 = no control
Method in brief: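 Wheat seedlings were sprayed to run-off with compound suspended at ppm concentrations in acetone/water containing 250 ppm PEG400. The next day they were inoculated with Puccinia recondita f. sp. tritici spores, held saturated at 20 °C for 24 h, then kept 7 days at 20 °C. Disease control was rated 0–100% relative to untreated controls.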

Point of comparison: CCc1nn(C)c(Nc2c(F)cc(C)cc2[N+](=O)[O-])c1-c1ccc(F)cc1Cl [compound 137], “Test B disease control rating” value 100%. Against it:
- Cc1nn(C)c(Nc2c(F)cc(Cl)cc2[N+](=O)[O-])c1-c1ccc(F)cc1Br [compound 131] — the same, 100%
- Cc1nn(C)c(Nc2c(F)cc(Br)cc2[N+](=O)[O-])c1-c1ccc(Cl)cc1Cl [compound 132] — lower, 98%
- Cc1nn(C)c(Nc2c(Cl)cccc2[N+](=O)[O-])c1-c1ccc(Cl)cc1Cl [compound 133] — lower, 86%
- Cc1nn(C)c(Nc2ccccc2[N+](=O)[O-])c1-c1ccc(C#N)cc1F [compound 134] — lower, 23%
- Cc1nn(C)c(Nc2ccccc2[N+](=O)[O-])c1-c1c(F)cccc1F [compound 135] — lower, 68%
- Cc1nn(C)c(Nc2ccccc2[N+](=O)[O-])c1-c1c(F)cccc1Cl [compound 136] — lower, 80%
- COc1cc(F)c(Nc2c(-c3ccc(Cl)cc3Cl)c(C)nn2C)c([N+](=O)[O-])c1 [compound 138] — the same, 100%
- Cc1nn(C)c(Nc2ccccc2[N+](=O)[O-])c1-c1ccc(F)cc1Br [compound 139] — lower, 86%
- COc1ccc(-c2c(C)nn(C)c2Nc2ccccc2[N+](=O)[O-])c(Cl)c1 [compound 140] — lower, 86%
- COc1cc(Cl)c(Nc2c(-c3ccc(F)cc3F)c(C)nn2C)c([N+](=O)[O-])c1 [compound 141] — the same, 100%
- COc1ccc(Nc2c(-c3ccc(Cl)cc3Cl)c(C)nn2C)c([N+](=O)[O-])c1 [compound 142] — lower, 91%
- Cc1cc(F)c(Nc2c(-c3ccc(Cl)cc3Cl)c(C)nn2C)c([N+](=O)[O-])c1 [compound 143] — the same, 100%

system: Blumeria graminis f. sp. tritici; experiment: Test C: wheat powdery mildew, preventive spray on wheat seedlings; assay type: in vivo; conditions: 50 ppm, 100 = 100% disease control, 0 = no control
Method in brief: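 Seedlings were sprayed to run-off with compound suspended (ppm) in 50/50 acetone–water containing 250 ppm PEG400, then spore-dust inoculated the following day. After 8 days at 20° C, disease control was rated visually from 0 to 100 against controls.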

Point of comparison: Cc1nn(C)c(Nc2ccccc2[N+](=O)[O-])c1-c1c(F)cccc1F [compound 135], “Test C disease control rating” value 93%. Against it:
- Cc1nn(C)c(Nc2c(F)cc(Cl)cc2[N+](=O)[O-])c1-c1ccc(F)cc1Br [compound 131] — higher, 99%
- Cc1nn(C)c(Nc2c(F)cc(Br)cc2[N+](=O)[O-])c1-c1ccc(Cl)cc1Cl [compound 132] — lower, 47%
- Cc1nn(C)c(Nc2c(Cl)cccc2[N+](=O)[O-])c1-c1ccc(Cl)cc1Cl [compound 133] — lower, 0%
- Cc1nn(C)c(Nc2ccccc2[N+](=O)[O-])c1-c1ccc(C#N)cc1F [compound 134] — lower, 71%
- Cc1nn(C)c(Nc2ccccc2[N+](=O)[O-])c1-c1c(F)cccc1Cl [compound 136] — lower, 88%
- CCc1nn(C)c(Nc2c(F)cc(C)cc2[N+](=O)[O-])c1-c1ccc(F)cc1Cl [compound 137] — higher, 100%
- COc1cc(F)c(Nc2c(-c3ccc(Cl)cc3Cl)c(C)nn2C)c([N+](=O)[O-])c1 [compound 138] — the same, 93%
- Cc1nn(C)c(Nc2ccccc2[N+](=O)[O-])c1-c1ccc(F)cc1Br [compound 139] — lower, 76%
- COc1ccc(-c2c(C)nn(C)c2Nc2ccccc2[N+](=O)[O-])c(Cl)c1 [compound 140] — lower, 31%
- COc1cc(Cl)c(Nc2c(-c3ccc(F)cc3F)c(C)nn2C)c([N+](=O)[O-])c1 [compound 141] — higher, 99%
- COc1ccc(Nc2c(-c3ccc(Cl)cc3Cl)c(C)nn2C)c([N+](=O)[O-])c1 [compound 142] — lower, 39%
- Cc1cc(F)c(Nc2c(-c3ccc(Cl)cc3Cl)c(C)nn2C)c([N+](=O)[O-])c1 [compound 143] — higher, 96%

system: Phakopsora pachyrhizi; experiment: Test D: Asian soybean rust, preventive spray on soybean seedlings; assay type: in vivo; conditions: 50 ppm, 100 = 100% disease control, 0 = no control
Method in brief: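 Compounds in acetone/water (50/50) with 250 ppm PEG400, dosed in ppm, sprayed to run-off on soybean seedlings; inoculated with P. pachyrhizi spores next day. Held 24 h at 22 °C in saturated air, then 8 days at 22 °C; visual rating of disease control, 0–100, relative to untreated controls.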

Point of comparison: Cc1nn(C)c(Nc2ccccc2[N+](=O)[O-])c1-c1c(F)cccc1F [compound 135], “Test D disease control rating” value 0%. Against it:
- Cc1nn(C)c(Nc2c(F)cc(Cl)cc2[N+](=O)[O-])c1-c1ccc(F)cc1Br [compound 131] — higher, 80%
- Cc1nn(C)c(Nc2c(F)cc(Br)cc2[N+](=O)[O-])c1-c1ccc(Cl)cc1Cl [compound 132] — the same, 0%
- Cc1nn(C)c(Nc2c(Cl)cccc2[N+](=O)[O-])c1-c1ccc(Cl)cc1Cl [compound 133] — the same, 0%
- Cc1nn(C)c(Nc2ccccc2[N+](=O)[O-])c1-c1ccc(C#N)cc1F [compound 134] — the same, 0%
- Cc1nn(C)c(Nc2ccccc2[N+](=O)[O-])c1-c1c(F)cccc1Cl [compound 136] — the same, 0%
- CCc1nn(C)c(Nc2c(F)cc(C)cc2[N+](=O)[O-])c1-c1ccc(F)cc1Cl [compound 137] — higher, 91%
- COc1cc(F)c(Nc2c(-c3ccc(Cl)cc3Cl)c(C)nn2C)c([N+](=O)[O-])c1 [compound 138] — higher, 67%
- Cc1nn(C)c(Nc2ccccc2[N+](=O)[O-])c1-c1ccc(F)cc1Br [compound 139] — the same, 0%
- COc1ccc(-c2c(C)nn(C)c2Nc2ccccc2[N+](=O)[O-])c(Cl)c1 [compound 140] — the same, 0%
- COc1cc(Cl)c(Nc2c(-c3ccc(F)cc3F)c(C)nn2C)c([N+](=O)[O-])c1 [compound 141] — the same, 0%
- COc1ccc(Nc2c(-c3ccc(Cl)cc3Cl)c(C)nn2C)c([N+](=O)[O-])c1 [compound 142] — higher, 25%
- Cc1cc(F)c(Nc2c(-c3ccc(Cl)cc3Cl)c(C)nn2C)c([N+](=O)[O-])c1 [compound 143] — higher, 87%

system: Botrytis cinerea; experiment: Test E: tomato Botrytis, preventive spray on tomato seedlings; assay type: in vivo; conditions: 50 ppm, 100 = 100% disease control, 0 = no control
Method in brief: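 Compound suspended in 50/50 acetone/water with 250 ppm PEG400 surfactant and sprayed to run-off on tomato seedlings; Botrytis cinerea spores applied the next day. Incubation 48 h at 20° C in saturated atmosphere, then 3 days at 24° C. Visual rating 0–100% disease control relative to controls.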

Point of comparison: Cc1nn(C)c(Nc2ccccc2[N+](=O)[O-])c1-c1ccc(C#N)cc1F [compound 134], “Test E disease control rating” value 70%. Against it:
- Cc1nn(C)c(Nc2c(F)cc(Cl)cc2[N+](=O)[O-])c1-c1ccc(F)cc1Br [compound 131] — higher, 99%
- Cc1nn(C)c(Nc2c(F)cc(Br)cc2[N+](=O)[O-])c1-c1ccc(Cl)cc1Cl [compound 132] — higher, 99%
- Cc1nn(C)c(Nc2c(Cl)cccc2[N+](=O)[O-])c1-c1ccc(Cl)cc1Cl [compound 133] — higher, 97%
- Cc1nn(C)c(Nc2ccccc2[N+](=O)[O-])c1-c1c(F)cccc1F [compound 135] — higher, 99%
- Cc1nn(C)c(Nc2ccccc2[N+](=O)[O-])c1-c1c(F)cccc1Cl [compound 136] — higher, 99%
- CCc1nn(C)c(Nc2c(F)cc(C)cc2[N+](=O)[O-])c1-c1ccc(F)cc1Cl [compound 137] — higher, 99%
- COc1cc(F)c(Nc2c(-c3ccc(Cl)cc3Cl)c(C)nn2C)c([N+](=O)[O-])c1 [compound 138] — higher, 99%
- Cc1nn(C)c(Nc2ccccc2[N+](=O)[O-])c1-c1ccc(F)cc1Br [compound 139] — higher, 100%
- COc1ccc(-c2c(C)nn(C)c2Nc2ccccc2[N+](=O)[O-])c(Cl)c1 [compound 140] — higher, 100%
- COc1cc(Cl)c(Nc2c(-c3ccc(F)cc3F)c(C)nn2C)c([N+](=O)[O-])c1 [compound 141] — higher, 99%
- COc1ccc(Nc2c(-c3ccc(Cl)cc3Cl)c(C)nn2C)c([N+](=O)[O-])c1 [compound 142] — higher, 99%
- Cc1cc(F)c(Nc2c(-c3ccc(Cl)cc3Cl)c(C)nn2C)c([N+](=O)[O-])c1 [compound 143] — higher, 99%

system: Alternaria solani; experiment: Test F: tomato early blight, preventive spray on tomato seedlings; assay type: in vivo; conditions: 50 ppm, 100 = 100% disease control, 0 = no control
Method in brief: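 Tomato seedlings were sprayed to run-off with compound suspended in acetone/water (50/50) with 250 ppm PEG400 and inoculated with Alternaria solani spores the next day. Plants were held 48 h at 27 °C in saturated humidity, then 3 days at 20 °C. Disease control was rated visually from 0 to 100 against untreated controls.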

Point of comparison: CCc1nn(C)c(Nc2c(F)cc(C)cc2[N+](=O)[O-])c1-c1ccc(F)cc1Cl [compound 137], “Test F disease control rating” value 99%. Against it:
- Cc1nn(C)c(Nc2c(F)cc(Cl)cc2[N+](=O)[O-])c1-c1ccc(F)cc1Br [compound 131] — higher, 100%
- Cc1nn(C)c(Nc2c(F)cc(Br)cc2[N+](=O)[O-])c1-c1ccc(Cl)cc1Cl [compound 132] — lower, 96%
- Cc1nn(C)c(Nc2c(Cl)cccc2[N+](=O)[O-])c1-c1ccc(Cl)cc1Cl [compound 133] — lower, 0%
- Cc1nn(C)c(Nc2ccccc2[N+](=O)[O-])c1-c1ccc(C#N)cc1F [compound 134] — lower, 0%
- Cc1nn(C)c(Nc2ccccc2[N+](=O)[O-])c1-c1c(F)cccc1F [compound 135] — lower, 0%
- Cc1nn(C)c(Nc2ccccc2[N+](=O)[O-])c1-c1c(F)cccc1Cl [compound 136] — lower, 0%
- COc1cc(F)c(Nc2c(-c3ccc(Cl)cc3Cl)c(C)nn2C)c([N+](=O)[O-])c1 [compound 138] — higher, 100%
- Cc1nn(C)c(Nc2ccccc2[N+](=O)[O-])c1-c1ccc(F)cc1Br [compound 139] — lower, 33%
- COc1ccc(-c2c(C)nn(C)c2Nc2ccccc2[N+](=O)[O-])c(Cl)c1 [compound 140] — lower, 93%
- COc1cc(Cl)c(Nc2c(-c3ccc(F)cc3F)c(C)nn2C)c([N+](=O)[O-])c1 [compound 141] — lower, 83%
- COc1ccc(Nc2c(-c3ccc(Cl)cc3Cl)c(C)nn2C)c([N+](=O)[O-])c1 [compound 142] — lower, 80%
- Cc1cc(F)c(Nc2c(-c3ccc(Cl)cc3Cl)c(C)nn2C)c([N+](=O)[O-])c1 [compound 143] — higher, 100%
